Source: paper PMC7689813 (Journal of Clinical Pharmacology, 2020)
Values joined by “and” are separate entries in the source; they are usually repeats but may differ in a detail not shown here. Equal values may be shown once. “Also recorded” adds a separate entry of the source.

Columns and labels:
CYP2B6 = assay: Clinical DDI study: elagolix effect on bupropion; assay type: in vivo, human; conditions: for Change in AUC values / Increase in Cmax: single dose bupropion after 10 days of elagolix 300 mg twice daily
[1] = Clinical DDI study: elagolix and sertraline
OATP1B1/B3 and BCRP = assay: Clinical DDI study: elagolix and rosuvastatin; assay type: in vivo, human; conditions: for Increase in rosuvastatin Cmax: first (single) dose of elagolix 300 mg
CYP3A [2] = assay: Clinical DDI study: elagolix 150 mg once daily effect on midazolam; conditions: male participants
P‐gp [3] = target: P‐gp (Homo sapiens, UniProt P08183); assay: Clinical DDI study: elagolix effect on digoxin
CYP3A and P‐gp = assay: Clinical DDI study: ketoconazole effect on elagolix; assay type: in vivo, human
[4] = Safety and tolerability in the 9 phase 1 DDI studies; assay type: in vivo, human; conditions: for Participants reporting 1 or more TEAE: ketoconazole study
[5] = cited from earlier work
[6] = background; cited from earlier work
CYP3A4 = conditions: cited from earlier work
OATP1B1 = conditions: cited from earlier work
P‐gp [7] = conditions: cited from earlier work
[8] = tested on: breast cancer resistance protein (BCRP); conditions: cited from earlier work
CYP2C19 [9] = conditions: cited from earlier work
CYP2C19 [10] = conditions: cited from earlier work; remark: listed apart in the source
[11] = Clinical DDI study: elagolix and fluconazole
OATP1B1, CYP3A and P‐gp = assay: Clinical DDI study: single and multiple dose rifampin effect on elagolix
CYP3A [12] = assay: Clinical DDI study: elagolix 300 mg twice daily effect on midazolam
[13] = multiple doses of elagolix 300 mg twice daily
[14] = either single dose or multiple doses (10 days) of elagolix 200 mg twice daily
[15] = multiple doses of rifampin (dosing for 10 days) vs elagolix alone
[16] = first dose of elagolix 300 mg twice daily, female participants

P‐gp (Homo sapiens, UniProt P08183), sequence (P08183 whole entry): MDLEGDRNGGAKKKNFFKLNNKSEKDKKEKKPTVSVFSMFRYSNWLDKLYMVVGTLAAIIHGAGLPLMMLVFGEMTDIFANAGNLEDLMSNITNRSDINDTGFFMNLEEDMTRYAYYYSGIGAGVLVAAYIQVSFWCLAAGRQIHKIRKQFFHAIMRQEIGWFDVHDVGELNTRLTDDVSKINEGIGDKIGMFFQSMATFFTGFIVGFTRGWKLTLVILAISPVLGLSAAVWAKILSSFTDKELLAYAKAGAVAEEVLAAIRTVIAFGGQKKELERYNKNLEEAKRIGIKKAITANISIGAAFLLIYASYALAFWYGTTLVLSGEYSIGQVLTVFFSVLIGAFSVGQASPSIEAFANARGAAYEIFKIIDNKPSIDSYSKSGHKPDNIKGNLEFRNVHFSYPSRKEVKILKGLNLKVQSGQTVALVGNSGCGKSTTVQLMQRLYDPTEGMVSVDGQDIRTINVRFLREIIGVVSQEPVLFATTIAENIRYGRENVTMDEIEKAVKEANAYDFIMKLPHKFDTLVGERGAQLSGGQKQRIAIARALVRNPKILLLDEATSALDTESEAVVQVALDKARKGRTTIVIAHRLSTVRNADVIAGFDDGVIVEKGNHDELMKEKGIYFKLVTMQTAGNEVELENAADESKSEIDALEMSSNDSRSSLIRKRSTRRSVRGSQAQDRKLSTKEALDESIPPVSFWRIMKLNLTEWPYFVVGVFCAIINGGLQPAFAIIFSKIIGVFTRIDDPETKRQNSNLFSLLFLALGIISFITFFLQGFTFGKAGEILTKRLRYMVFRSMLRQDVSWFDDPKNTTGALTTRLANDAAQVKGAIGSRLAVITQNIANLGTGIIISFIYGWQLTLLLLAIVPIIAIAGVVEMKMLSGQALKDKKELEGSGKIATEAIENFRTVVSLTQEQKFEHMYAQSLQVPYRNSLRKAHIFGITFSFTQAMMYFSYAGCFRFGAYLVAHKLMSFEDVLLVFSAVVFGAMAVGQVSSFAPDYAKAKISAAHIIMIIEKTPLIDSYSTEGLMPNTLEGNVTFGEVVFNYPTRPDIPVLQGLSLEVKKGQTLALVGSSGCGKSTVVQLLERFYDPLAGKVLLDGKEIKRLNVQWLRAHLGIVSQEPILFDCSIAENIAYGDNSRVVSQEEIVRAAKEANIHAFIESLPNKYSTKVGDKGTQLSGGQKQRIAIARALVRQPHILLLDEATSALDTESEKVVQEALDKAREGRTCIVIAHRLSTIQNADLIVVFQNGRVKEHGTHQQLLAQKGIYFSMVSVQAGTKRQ

For `C[C@H]1NC(C)(C)CO[C@]1(O)c1cccc(Cl)c1` [OH‐bupropion, hydroxybupropion], the “Change in AUC values” (CYP2B6) was ≤ 9% and the “Increase in Cmax” value (CYP2B6) was 32%.

With `CN[C@H]1CC[C@@H](c2ccc(Cl)c(Cl)c2)c2ccccc21` [sertraline, reference compound] the “Changes in exposure on coadministration of elagolix with sertraline” value ([1]; abstract summary) was “No clinically significant changes in exposure” and the “Increase in sertraline steady‐state Cmax” value [1, 13] was 34%.

With `CC(C)c1nc(N(C)S(C)(=O)=O)nc(-c2ccc(F)cc2)c1/C=C/[C@@H](O)C[C@@H](O)CC(=O)O` [rosuvastatin] the “Increase in rosuvastatin Cmax” value (OATP1B1/B3 and BCRP) was “approximately 67%”, the “Increase in rosuvastatin Cmax” value (OATP1B1/B3 and BCRP; listed as Rosuvastatin) was 67% and the “Change in rosuvastatin AUC” value (OATP1B1/B3 and BCRP; first dose of elagolix 300 mg twice daily) was “no significant change”. The “Change in rosuvastatin Cmax (steady state)” value (OATP1B1/B3 and BCRP; [13]) was “not significantly changed; also recorded: no change”.

With `OCc1ncc2n1-c1ccc(Cl)cc1C(c1ccccc1F)=NC2` [1‐OH‐midazolam, 1-hydroxymidazolam] the “Increase in 1‐OH‐midazolam exposures” value (CYP3A [2]; elagolix 150 mg once daily) was “up to 11%”.

For `C[C@H]1O[C@@H](O[C@H]2[C@@H](O)C[C@H](O[C@H]3[C@@H](O)C[C@H](O[C@H]4CC[C@@]5(C)[C@H](CC[C@@H]6[C@@H]5C[C@@H](O)[C@]5(C)[C@@H](C7=CC(=O)OC7)CC[C@]65O)C4)O[C@@H]3C)O[C@@H]2C)C[C@H](O)[C@@H]1O` [digoxin], the “Increase in digoxin AUC” value (P‐gp [3]; [14]) was ~30%, the “Increase in digoxin Cmax” value (P‐gp [3]; [14]) was “approximately 70%” and the “Digoxin t½ alone vs in the presence of elagolix” value (P‐gp [3]; elagolix 200 mg twice daily) was “similar”.

For `CC(NC(C)(C)C)C(=O)c1cccc(Cl)c1` (centres unmarked) [bupropion], the “Increase in bupropion PK” value (CYP2B6; elagolix 300 mg twice daily) was ≤ 25%, the “Change in AUC values” (CYP2B6) was ≤ 9% and the “Increase in Cmax” value (CYP2B6) was 25%.

With `COc1cccc(-c2c(C)n(Cc3c(F)cccc3C(F)(F)F)c(=O)n(C[C@H](NCCCC(=O)O)c3ccccc3)c2=O)c1F` [elagolix, sodium R‐(+)‐4‐{2‐[5‐(2‐fluoro‐3‐methoxyphenyl)‐3‐(2‐fluoro‐6‐[trifluoromethyl]benzyl)‐4 ‐methyl‐2,6‐dioxo‐3,6‐dihydro‐2H‐pyrimidin‐1‐yl]‐1‐phenylethylamino}butyrate] the “Classification of elagolix as CYP3A (or P‐gp) substrate” value (CYP3A and P‐gp; based on ketoconazole study vs FDA criterion (≥5‐fold increase)) was “not considered a sensitive CYP3A substrate”, the “Elagolix half‐life with vs without ketoconazole coadministration” value (CYP3A and P‐gp; elagolix 150 mg single dose, ketoconazole 400 mg once daily) was “similar” and the “Effect of rosuvastatin on elagolix exposure” value (OATP1B1/B3 and BCRP; rosuvastatin 20 mg once daily, elagolix 300 mg twice daily) was “no effect”. For the same molecule, the “Changes in vital sign values, ECG parameters, physical examination findings, laboratory measurements” value ([4]; across all studies) was “no clinically significant changes”, the “Most common adverse events assessed as mild and reasonably related to elagolix” value ([4]; across all studies) was “hot flush, headache, nausea, and amenorrhea” and the “Severe adverse events (all assessed as not related to elagolix)” value ([4]; across all studies) was 3. The Tolerability ([4]; elagolix and coadministered drugs across regimens, 144 female and male participants, 9 phase 1 studies) was “generally well tolerated”, the “Participants reporting 1 or more TEAE” value ([4]; elagolix‐alone portion of the test regimen) was “zero” and the “Excreted unchanged in urine” value [5] was “less than 3%”. For the same molecule, the “Plasma exposure of elagolix metabolites relative to the parent compound” value [5] was “less than 3%”, the “Dose proportionality of exposure” value ([5]; from 100 to 400 mg twice daily) was “approximately dose proportional” and the “Apparent terminal‐phase elimination half‐life (t½)” value ([5]; oral) was 4 to 6 h. For the same molecule, the “Time to mean maximum observed plasma concentration (Tmax)” value ([5]; oral) was “approximately 1 hour”, the “Common adverse reactions associated with elagolix” value [6] was “hot flush, headache, and nausea” and the “In vitro effect on CYP3A4” value (CYP3A4) was “inducer”. For the same molecule, the “In vitro metabolism (enzyme)” value (CYP3A4) was “metabolized primarily by the cytochrome P450 (CYP) enzyme CYP3A4”, the “In vitro effect on OATP1B1” value (OATP1B1) was “inhibitor” and the “In vitro effect on P‐gp” value (P‐gp [7]) was “inhibitor”. For the same molecule, the “In vitro effect on BCRP” value [8] was “inhibitor”, the “In vitro effect on CYP2C19” value (CYP2C19 [9]) was “inhibitor” and the “Classification of elagolix as inhibitor of CYP2C19” value (CYP2C19 [10]) was “weak inhibitor”. The “Effect of sertraline on elagolix plasma exposures (Cmax and AUC)” value ([1]; single‐dose 300‐mg elagolix, sertraline 25 mg once daily for 10 days) was “not affected; also recorded: did not affect”, the “Increase in elagolix steady‐state Cmax” value ([11]; 10 days of elagolix 300 mg twice daily, single dose of fluconazole 200 mg) was “approximately 30%” and the “Classification of elagolix as inhibitor of efflux transporter P‐gp” value (P‐gp [3]; mechanistic clinical studies) was “weak inhibitor”. The “Increase in elagolix exposures (Cmax and AUC)” value (OATP1B1, CYP3A and P‐gp; multiple days of rifampin dosing) was ≤ 2 fold, the “Increase in elagolix AUC” value (OATP1B1, CYP3A and P‐gp; [15]) was ~2 fold and 1.7 fold and the “Increase in elagolix Cmax” value (OATP1B1, CYP3A and P‐gp; [15]) was 2.0 fold. The “Increase in elagolix exposures (Cmax and AUC)” value (OATP1B1, CYP3A and P‐gp; single dose of rifampin) was < 6 fold and > 4.4 fold, the “Increase in elagolix Cmax” value (OATP1B1, CYP3A and P‐gp; with a single dose of rifampin 600 mg vs elagolix alone) was 4.4 fold and the “Classification of elagolix as inducer of CYP3A” value (CYP3A [12]; depending on the dose administered (150 mg once daily, 300 mg twice daily), midazolam studies) was “weak or moderate inducer; also recorded: weak to moderate inducer”.

In the case of `Cc1ncc2n1-c1ccc(Cl)cc1C(c1ccccc1F)=NC2` [midazolam], the “Decrease in midazolam AUC” value (CYP3A [2]; multiple doses of elagolix 150 mg once daily) is reported as ~35%, the “Decrease in midazolam AUC” value (CYP3A [2]; single dose of elagolix 150 mg once daily) is reported as “approximately 21%” and the “Increase in midazolam AUC” value (CYP3A [12]; [16]) is reported as ~27%. For the same molecule, the “Increase in midazolam Cmax” value (CYP3A [12]; [16]) was “approximately 18%” and the “Decrease in midazolam Cmax” value (CYP3A [12]; multiple doses of elagolix 300 mg twice daily (11 days of dosing), female participants) was “approximately 44%”.

With `OC(Cn1cncn1)(Cn1cncn1)c1ccc(F)cc1F` [fluconazole] the “Changes in exposure on coadministration of elagolix with fluconazole” value ([11]; abstract summary) was “No clinically significant changes in exposure” and the “Effect of elagolix on fluconazole exposures (Cmax and AUC)” value ([11]; elagolix 300 mg twice daily, fluconazole 200 mg single dose) was “not affected; also recorded: did not affect”.

For `CC(=O)N1CCN(c2ccc(OCC3COC(Cn4ccnc4)(c4ccc(Cl)cc4Cl)O3)cc2)CC1` (centres unmarked) [ketoconazole, reference compound], the “Participants reporting 1 or more TEAE” value ([4]; ketoconazole‐alone portion of the test regimen) was 82%.
